Results published in US7527916B2, “Photopolymerizable composition” (Agfa Graphics, N.V., priority 2003, dated 2009).

Assay: Solubility test in methyl ethyl ketone
Type: physicochemical
Conditions: 1.5 g sensitiser in 100 g methyl ethyl ketone, stirred at room temperature (20° C.) for a maximum of 24 hours
Description: Solubility Test in Methyl Ethyl Ketone
1.5 g of the sensitiser is dissolved in 100g of methyl ethyl ketone and allowed to stir at room temperature (20° C.) for a maximum of 24 hours. If the sensitiser is completely dissolved in the methyl ethyl ketone, the sensitiser passes the solubility test and is considered as a preferred sensitiser according to the present invention.

SMILES | Solubility test MEK (15 g/kg)
CCC(C)Oc1c(OC)cc(C=Cc2ccc(C=Cc3cc(OC)c(OC(C)CC)c(OC)c3)cc2)cc1OC (centres unmarked) [(D), 1,4-distyryl-(3,5-trimethoxy, 4-(2-butyl)oxy)benzene] | OK (If the sensitiser is completely dissolved in the methyl ethyl ketone, the sensitiser passes the solubility test)
CCCCC(CC)COc1c(OC)cc(C=Cc2ccc(C=Cc3cc(OC)c(OCC(CC)CCCC)c(OC)c3)cc2)cc1OC (centres unmarked) [(F), 1,4-distyryl-(3,5-trimethoxy, 4-(1-(2-ethyl)hexyl)oxy)benzene] | OK (If the sensitiser is completely dissolved in the methyl ethyl ketone, the sensitiser passes the solubility test)
